Measurements reported in patent US10399971B2, “Compound for treating or preventing hyperuricemia or gout” (JIANGSU ATOM BIOSCIENCE AND PHARMACEUTICAL CO., LTD., priority 2015, dated 2019).
“And” between values parts separate entries of the source, which are not always exact repeats. Equal values may be shown once. Read-outs that look alike come from different tables or passages of the source.

Legend:
[1] = tested on: human normal liver cell line L-02; assay: Cytotoxicity test on human normal liver cell line L-02 (Alamar Blue); format: cell-based; settings: L02, L-02 cells, 120 h incubation, cell viability, read-out: half inhibitory concentration (IC50) against L-02
Experimental: (§1) 2.1 The normal liver cell lines L-02 and WRL-68 were cultured with DMEM culture medium (containing 10% of fetal bovine serum, 100 U/mL of penicillin and 0.1 mg/mL of streptomycin) in an incubator under 5% CO2 at 37° C. until the cell density was about 90%, respectively.
(§2) 2.3 Tested compounds and benzbromarone at different concentration gradients were prepared by using the DMEM culture medium and added into wells at 100 μL/well as compounds wells. The DMEM culture medium was added into wells at 100 μL/well without tested compound as negative control wells.
(§3) This 10× Alamar Blue solution was diluted into 1× Alamar Blue solution with phenol red free DMEM culture medium before use.
(§4) 2.5 The cells were washed with PBS (0.1 M, pH=7.4) twice. The Alamar Blue solution was added into wells at 100 μL/well. 100 μL of Alamar Blue solution was added into wells without cells to serve as blank control wells. The 96-well plate was placed in an incubator under 5% CO2 at 37° C. for 3 h. Each concentration of compound was repeated three times during the test.
(§5) The fluorescence value of the cells containing compound is the F(test compound); the fluorescence value of the cells without compound as blank control is the F(blank control); the fluorescent value of the cells from negative control group is F(negative control). The average value and standard deviation of cell viability of three repeated concentrations was calculated by the following formula: […]
(§6) 2.7 The half inhibitory concentration (IC50) of the compound for the cells L-02 and WRL-68 was obtained from the cell viability by Prism Graph software.

[2] = tested on: human normal liver cell line WRL-68; assay: Cytotoxicity test on human normal liver cell line WRL-68 (Alamar Blue); format: cell-based; settings: WRL68, WRL-68 cells, 120 h incubation, cell viability, read-out: half inhibitory concentration (IC50) against WRL-68
Experimental: as §1, §2, §3, §4, §5, §6

[3] = in vivo; settings: both, SD, rat, po
Description: (§7) Rats were randomly divided into group A1, group B1 and blank control group. Each group has 10 of rats with half male and half female.

[4] = Acute toxicity of single oral dose in SD rats; settings: for Weight gain rate (%): 14 day compared with 0 day
Description: as §7

[5] = Pharmacokinetics following intravenous and oral administration in SD rats; format: in vivo
Description: Dose formulation preparation for PO: Weight out the required amount of compound 74. Added approximately 70% of 0.5% CMC-Na with stirring, vortexing and sonication to mix well until visually well suspension. Then added the remaining vehicle to target total volume and vortex-mix.
Dose formulation preparation for IV: Weight out the required amount of compound 74. Added appropriate DMSO with sonication until dissolved, then added appropriate HP-β-Cyclodextrin water solution (20%, w/v) with vortexing to mix well.
Species: SD rats (SPF Level); sex: male; source: Sino-British SIPPR/BK Lab Animal Ltd., Shanghai.
The animals that dosed via orally were fasted overnight (10-14 hours) prior to oral administration. Food supply to the animals dosed orally were resumed 4 h post-dose.
Blood samples (approximately 250 μL/sample) were collected via jugular vein at Pre-dose and Post-dose (5 min, 15 min, 30 min, 1 h, 2 h, 4 h, 6 h, 8 h, and 24 h). Blood samples were placed into tubes containing sodium heparin and centrifuged conditions at 8000 rpm for 6 minutes at 2-8° C. to separate plasma from the samples. Plasma sample (50 μL) were transferred to tube, then 250 μL IS solution (200 ng/mL Tolbutamide) was added to it. After vortexing for 1 min and centrifuging for 5 min at 15000 rpm, 200 μL aliquots of supernatant were transferred to 96-well plate for LC-MS/MS analysis. The calibration curve of compound 74 was ranging from 1 to 1000 ng/mL. The LLOQ is 1 ng/mL for plasma.
A non-compartemental module of WinNonlin® Professional 5.2 was used to calculate parameters. The bioavailability was calculated as F %=(Dose(IV)×AUC(0-t)(PO))/(Dose(PO)×AUC(0-t)(IV))×100%.

[6] = female SD rats (n=5), 74 at 5.0 g/kg, BBR at 0.14 g/kg
[7] = male SD rats (n=5), 74 at 5.0 g/kg, BBR at 0.14 g/kg
[8] = IV 1 mg/kg, individual rats 201-203, 1 mg/kg
[9] = PO 10 mg/kg, individual rats 101-103, 10 mg/kg

CCc1nc2ccccn2c1C(=O)c1cc(Br)c(O)c(C#N)c1 [Compound 74, 3-bromo-5-(2-ethylimidazo[1,2-a]pyridine-3-carbonyl)-2-hydroxybenzonitrile hydrogen chloride]
IC50 [1]: > 100 µM
IC50 [2]: > 100 µM
MTD at 14 days [3]: 5000 mg/kg
Death rate ([4]; SD rats, single oral dose, 74 at 5.0 g/kg, BBR at 0.14 g/kg, 10 rats per group, 14 days observation): 0/10
Weight 0 day (X ± SD) [4, 6]: 135.94 ± 5.62 g
Weight 7 day (X ± SD) [4, 6]: 183.02 ± 11.10 g
Weight gain rate (%) ([4]; female SD rats (n=5)): +53.0%
Weight 14 day (X ± SD) [4, 6]: 208.04 ± 11.90 g
Weight 0 day (X ± SD) [4, 7]: 149.06 ± 5.95 g
Weight 7 day (X ± SD) [4, 7]: 204.04 ± 21.69 g
Weight gain rate (%) ([4]; male SD rats (n=5)): +73.2%
Weight 14 day (X ± SD) [4, 7]: 258.12 ± 17.65 g
death of rats in pre-experiment of acute toxicity ([4]; pre-experiment, compound 74 at 5 g/kg (highest dose), benzbromarone at 0.14 g/kg): did not cause death
Clz ([5]; IV 1 mg/kg, Mean of 3 rats): 1.803 mL/min/kg
AUC(0-t) [5, 8]: 9076.84 ng·h/mL and 8847.27 ng·h/mL
Clz [5, 8]: 1.8372 mL/min/kg and 1.761 mL/min/kg and 1.8108 mL/min/kg
Cmax [5, 8]: 6705.53 ng/mL and 6885.21 ng/mL
MRT(0-∞) [5, 8]: 5.60 h
Vz [5, 8]: 0.91779 L/kg and 0.93449 L/kg
t1/2 [5, 8]: 6.00 h
F (%) ([5]; PO 10 mg/kg vs IV 1 mg/kg, from AUC(0-t), individual rats 101-103): 108.04% and 100.28%
AUC(0-t) [5, 9]: 96188.83 ng·h/mL and 89284.20 ng·h/mL
Cmax [5, 9]: 6976.14 ng/mL and 8251.74 ng/mL
MRT(0-∞) [5, 9]: 6.80 h and 6.00 h
Tmax [5, 9]: 2.00 h and 6.00 h
t1/2 [5, 9]: 3.00 h and 2.70 h
half-life ([5]; male, SD, rat, plasma, iv, 1 mg/kg, IV 1 mg/kg, Mean of 3 rats): 5.8 h
AUC(0-t) ([5]; male, SD, rat, plasma, iv, 1 mg/kg, IV 1 mg/kg, Mean of 3 rats, read-out: AUC(0-t)): 8900 ng·h/mL
Cmax ([5]; male, SD, rat, plasma, iv, 1 mg/kg, IV 1 mg/kg, Mean of 3 rats, read-out: Cmax): 6360 ng/mL
MRT inf ([5]; male, SD, rat, plasma, iv, 1 mg/kg, IV 1 mg/kg, Mean of 3 rats, read-out: MRT(0-∞)): 5.5 h
Tmax ([5]; male, SD, rat, plasma, iv, 1 mg/kg, IV 1 mg/kg, Mean of 3 rats, read-out: Tmax): 0.1 h
Vd ([5]; male, SD, rat, plasma, iv, 1 mg/kg, IV 1 mg/kg, Mean of 3 rats, read-out: Vz): 0.904 L/kg
half-life ([5]; male, SD, rat, plasma, iv, 1 mg/kg, IV 1 mg/kg, individual rats 201-203): 5.4 h
AUC(0-t) ([5]; male, SD, rat, plasma, iv, 1 mg/kg, IV 1 mg/kg, individual rats 201-203, read-out: AUC(0-t)): 8790 ng·h/mL
Cmax ([5]; male, SD, rat, plasma, iv, 1 mg/kg, IV 1 mg/kg, individual rats 201-203, read-out: Cmax): 5490 ng/mL
MRT inf ([5]; male, SD, rat, plasma, iv, 1 mg/kg, IV 1 mg/kg, individual rats 201-203, read-out: MRT(0-∞)): 5.4 h
Tmax ([5]; male, SD, rat, plasma, iv, 1 mg/kg, IV 1 mg/kg, individual rats 201-203, read-out: Tmax): 0.1 h
Vd ([5]; male, SD, rat, plasma, iv, 1 mg/kg, IV 1 mg/kg, individual rats 201-203, read-out: Vz): 0.859 L/kg
bioavailability ([5]; male, SD, rat, plasma, po, 10 mg/kg, PO 10 mg/kg vs IV 1 mg/kg, from AUC(0-t), Mean of 3 rats): 103%
bioavailability ([5]; male, SD, rat, plasma, po, 10 mg/kg, PO 10 mg/kg vs IV 1 mg/kg, from AUC(0-t), individual rats 101-103): 101%
half-life ([5]; male, SD, rat, plasma, po, 10 mg/kg, PO 10 mg/kg, Mean of 3 rats): 2.9 h
AUC(0-t) ([5]; male, SD, rat, plasma, po, 10 mg/kg, PO 10 mg/kg, Mean of 3 rats, read-out: AUC(0-t)): 91800 ng·h/mL
Cmax ([5]; male, SD, rat, plasma, po, 10 mg/kg, PO 10 mg/kg, Mean of 3 rats, read-out: Cmax): 8140 ng/mL
MRT inf ([5]; male, SD, rat, plasma, po, 10 mg/kg, PO 10 mg/kg, Mean of 3 rats, read-out: MRT(0-∞)): 6.3 h
Tmax ([5]; male, SD, rat, plasma, po, 10 mg/kg, PO 10 mg/kg, Mean of 3 rats, read-out: Tmax): 3.3 h
half-life ([5]; male, SD, rat, plasma, po, 10 mg/kg, PO 10 mg/kg, individual rats 101-103): 2.9 h
AUC(0-t) ([5]; male, SD, rat, plasma, po, 10 mg/kg, PO 10 mg/kg, individual rats 101-103, read-out: AUC(0-t)): 89900 ng·h/mL
Cmax ([5]; male, SD, rat, plasma, po, 10 mg/kg, PO 10 mg/kg, individual rats 101-103, read-out: Cmax): 9210 ng/mL
MRT inf ([5]; male, SD, rat, plasma, po, 10 mg/kg, PO 10 mg/kg, individual rats 101-103, read-out: MRT(0-∞)): 5.9 h
